Assay results from patent US6506766B1 (Abbott Laboratories, priority 1998, dated 2003).
Like-named read-outs stand apart in the source and are kept apart here.

What was measured:
[1] = biological target: T1, human glucocorticoid receptor-α [GRX] isoform (Homo sapiens, UniProt P04150); assay: Radioligand binding with human glucocorticoid receptor cytosol ([3H]-dexamethasone competition)
T1 construct: host or cells: insect SF21 cells (baculovirus)
T1 sequence (P04150 1-777): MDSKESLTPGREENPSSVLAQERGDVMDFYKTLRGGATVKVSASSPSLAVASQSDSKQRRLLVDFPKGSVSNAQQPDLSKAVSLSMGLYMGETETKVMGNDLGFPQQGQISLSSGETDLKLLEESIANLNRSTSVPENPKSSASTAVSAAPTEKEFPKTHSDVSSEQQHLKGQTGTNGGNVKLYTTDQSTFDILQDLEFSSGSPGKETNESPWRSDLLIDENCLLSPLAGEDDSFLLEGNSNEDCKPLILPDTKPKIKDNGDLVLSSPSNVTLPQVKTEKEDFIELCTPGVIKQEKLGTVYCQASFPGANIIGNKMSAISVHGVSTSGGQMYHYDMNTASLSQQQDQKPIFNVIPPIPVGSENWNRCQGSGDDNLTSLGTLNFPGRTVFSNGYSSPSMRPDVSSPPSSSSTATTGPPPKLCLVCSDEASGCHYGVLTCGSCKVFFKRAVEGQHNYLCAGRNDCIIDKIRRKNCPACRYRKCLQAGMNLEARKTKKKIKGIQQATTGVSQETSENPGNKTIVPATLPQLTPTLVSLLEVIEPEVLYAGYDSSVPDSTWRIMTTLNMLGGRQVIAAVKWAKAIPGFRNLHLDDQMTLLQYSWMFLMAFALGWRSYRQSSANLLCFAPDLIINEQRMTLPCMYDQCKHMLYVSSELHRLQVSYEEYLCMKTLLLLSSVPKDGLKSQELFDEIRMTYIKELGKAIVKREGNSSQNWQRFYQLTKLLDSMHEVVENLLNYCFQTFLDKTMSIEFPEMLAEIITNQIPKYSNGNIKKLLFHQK
Excerpt: Briefly, cytosol preparations of human glucocorticoid receptor-α [GRX] isoform and human progesterone receptor-A [PRA] isoform were obtained from Ligand Pharmaceuticals (San Diego, Calif.). Both receptor cDNAs were cloned into baculovirus expression vectors and expressed in insect SF21 cells. [^3H]-dexamethasone (Dex, specific activity 82-86 Ci/mmole) and [^3H]-progesterone (Prog, specific activity 97-102 Ci/mmol) were purchased from Amersham Life Sciences (Arlington Heights, Ill.). Glass fiber type C multiscreen MAFC NOB plates were from Millipore (Burlington, Mass.). Hydroxyapatide Bio-Gel HTP gel was from Bio-Rad Laboratories (Hercules, Calif.). Tris(hydroxymethyl)aminomethane (Tris), ethylenediaminetetraacetic acid (EDTA), glycerol, dithiothreitol (DTT) and sodium moylybdate were obtained from Sigma Chemicals (St. Louis, Mo.). Microscint-20 scintillation fluid was from Packard Instrument (Meriden, Conn.).
Stock solutions (32 mM) of compounds were prepared in dimethylsulfoxide (DMSO), and 50× solutions of test compounds were prepared from the 32 mM solution with a 50:50 mixture of DMSO/ethanol. The 50× solution was then diluted with binding buffer that contained 10 mM Tri-HCl, 1.5 mM EDTA, 10% glycerol, 1 mM DTT, 20 mM sodium molybdate, pH 7.5 @4° C. 1% DMSO/ethanol was present in the binding assay.
For GR binding assays, [^3H]-Dex (˜35,000 dpm (˜0.9 nM)), GRX cytosol (˜35 μg protein), test compounds and binding buffer were mixed in a total volume of 200 μL and incubated at 4° C. overnight in a plate shaker. Specific binding was defined as the difference between binding of [^3H]Dex in the absence and in the presence of 1 μM unlabelled Dex.
After an overnight incubation, 50 μL of hydroxyapatite (25% weight/volume) slurry were added to each well and plates were incubated for 10 min at 0° C. in a plate shaker. Plates were suctioned with a Millipore vacuum manifold and each well was rinsed with 300 μL of ice-cold binding buffer. A 250 μL aliquot of Packard Microscint-20 was added to each well and the wells were shaken at room temperature for 20 minutes. The amount of radioactivity was determined with a Packard TopCount plate reader.
The Ki of test compounds was determined using the Cheng-Prusoff equation Ki=IC50/(1+[L*]/[KL]) where L* is the concentration of radioligand and KL is the dissociation constant of the radioligand determined from saturation analysis.

[2] = biological target: T2, human progesterone receptor-A [PRA] isoform (Homo sapiens, UniProt P06401); assay: Radioligand binding with human progesterone receptor cytosol ([3H]-progesterone competition)
T2 construct: host or cells: insect SF21 cells (baculovirus)
T2 sequence (P06401 1-769 isoform P06401-2): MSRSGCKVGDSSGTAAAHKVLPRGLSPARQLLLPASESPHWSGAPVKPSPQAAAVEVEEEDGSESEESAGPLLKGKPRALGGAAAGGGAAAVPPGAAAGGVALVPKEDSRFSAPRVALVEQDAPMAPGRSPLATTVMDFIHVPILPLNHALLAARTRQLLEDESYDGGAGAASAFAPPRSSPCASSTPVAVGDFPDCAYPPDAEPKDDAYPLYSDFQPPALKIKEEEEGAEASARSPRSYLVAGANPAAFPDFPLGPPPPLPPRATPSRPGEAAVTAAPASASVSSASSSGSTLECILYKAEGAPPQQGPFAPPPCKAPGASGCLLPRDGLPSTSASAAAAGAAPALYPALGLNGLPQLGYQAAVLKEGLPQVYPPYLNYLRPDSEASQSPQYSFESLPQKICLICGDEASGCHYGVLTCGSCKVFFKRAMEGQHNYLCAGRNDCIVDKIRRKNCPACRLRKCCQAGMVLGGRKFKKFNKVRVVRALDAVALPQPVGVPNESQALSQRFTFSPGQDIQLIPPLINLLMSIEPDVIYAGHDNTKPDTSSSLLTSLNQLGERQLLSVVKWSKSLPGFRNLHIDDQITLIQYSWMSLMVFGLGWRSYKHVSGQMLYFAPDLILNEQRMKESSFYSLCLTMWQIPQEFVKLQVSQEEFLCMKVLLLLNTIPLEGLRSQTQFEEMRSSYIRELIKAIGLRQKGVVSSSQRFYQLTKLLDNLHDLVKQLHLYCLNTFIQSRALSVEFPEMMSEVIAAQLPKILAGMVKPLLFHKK

[3] = GRX cytosol expressed in insect SF21 cells, [3H]-Dex ~0.9 nM, 4° C. overnight, Ki by Cheng-Prusoff, KL ~[…], read-out: Ki (nM) GR
[4] = PRA cytosol expressed in insect SF21 cells, [3H]Prog ~0.8 nM, 4° C. overnight, Ki by Cheng-Prusoff, KL ~4.5 nM, read-out: Ki (nM) PR

For `COc1cccc2c1-c1ccc3c(c1C(CC(C)C)O2)C(C)=CC(C)(C)N3` (centres unmarked) [Example 59, 2,5-Dihydro-10-methoxy-2,2,4-trimethyl-5-(2-methlpropyl)-1H-[1]benzopyrano[3,4-f]quinoline], the Ki [1, 3] was 9.5 nM and the Ki [2, 4] was 16600 nM.
For `COc1cccc2c1-c1ccc3c(c1C(CCOC(=O)N1CCOCC1)O2)C(C)=CC(C)(C)N3` (centres unmarked) [Example 201, 2,5-Dihydro-10-methoxy-5-(2-(N-morpholinocarbonyloxy)ethyl)-2,2,4-trimethyl-1H-[1]benzopyrano[3,4-f]quinoline], the Ki [1, 3] was 114 nM and the Ki [2, 4] was ≥ 10000 nM.
With `C/C=C/CC1Oc2cccc(OC)c2-c2ccc3c(c21)C(C)=CC(C)(C)N3` (stereo not drawn) [Example 191, trans 2,5-Dihydro-10-methoxy-5-(2-butenyl)-2,2,4-trimethyl-1H-[1]benzopyrano[3,4-f]quinoline] the Ki [1, 3] was 2.9 nM and the Ki [2, 4] was 1190 nM.
`COc1cccc2c1-c1ccc3c(c1C(c1ccccc1)O2)C(C)=CC(C)(C)N3` (single isomer, unassigned) [Example 25, (±)-2,5-Dihydro-10-methoxy-2,2,4-trimethyl-5-phenyl-1H-[1]benzopyrano-[3,4-f]quinoline] was tested, and the Ki [1, 3] was 240 nM and the Ki [2, 4] was ≥ 10000 nM.
`COc1cccc2c1-c1ccc3c(c1C(c1cccc(Cl)c1)O2)C(C)=CC(C)(C)N3` (centres unmarked) [Example 23, 5-(3-Chlorophenyl)-2,5-dihydro-10-methoxy-2,2,4-trimethyl-1H-[1]benzopyrano[3,4-f]quinoline] was tested, and the Ki [1, 3] was 8.2 nM and the Ki [2, 4] was 6150 nM.
“2,5-Dihydro-9-hydroxy-10-methoxy-2,2,4-trimethyl-5-((2-fluorophenyl)methyl)-1H-[1]benzopyrano[3,4-f]quinoline [Example 385]” gave a Ki ([1]; read-out: Ki (nM) GR) of 0.9 nM and a Ki [2, 4] of 170 nM.
In the case of `C=CCc1cc(C)cc(C2Oc3cccc(OC)c3-c3ccc4c(c32)C(C)=CC(C)(C)N4)c1` (centres unmarked) [Example 109, 2,5-Dihydro-10-methoxy-2,2,4-trimethyl-5-[3-methyl-5-(2-propenyl)phenyl]-1H-[1]benzopyrano[3,4-f]quinoline], the Ki [1, 3] is reported as 6.1 nM and the Ki [2, 4] is reported as ≥ 10000 nM.
With `C=CCNc1cccc2c1-c1ccc3c(c1C(c1cc(Cl)cc(Cl)c1)O2)C(C)=CC(C)(C)N3` (centres unmarked) [Example 74, 5-(3,5-Dichlorophenyl)-2,5-dihydro-2,2,4-trimethyl-N-(2-propenyl)-1H-[1]benzopyrano[3,4-f]quinolin-10-amine] the Ki [1, 3] was 11.9 nM and the Ki [2, 4] was 4880 nM.
`COc1cccc2c1-c1ccc3c(c1C(CCOC(=O)N(C)C)O2)C(C)=CC(C)(C)N3` (centres unmarked) [Example 204, 2,5-Dihydro-10-methoxy-5-(2-(N,N-dimethylaminocarbonyloxy)ethyl)-2,2,4-trimethyl-1H-[1]benzopyrano[3,4-f]quinoline] was tested, and the Ki [1, 3] was 74 nM and the Ki [2, 4] was ≥ 10000 nM.
`COCC1=CC(C2Oc3cccc(OC)c3-c3ccc4c(c32)C(C)=CC(C)(C)N4)CCC1` (centres unmarked) [Example 164] was tested, and the Ki [1, 3] was 36 nM and the Ki [2, 4] was ≥ 10000 nM.
In the case of `COc1c(OC(=O)CCC(=O)N(C)C)ccc2c1-c1ccc3c(c1C(c1cc(F)c(F)c(F)c1)O2)C(C)=CC(C)(C)N3` (centres unmarked) [Example 381, 2,5-Dihydro-9-(4-N,N-dimethylamino-4-oxo-butanoyloxy)-10-methoxy-2,2,4-trimethyl-5-(3,4,5-trifluorophenyl)-1H-[1]benzopyrano[3,4-f]quinoline], the Ki [1, 3] is reported as 7.1 nM and the Ki [2, 4] is reported as 9820 nM.
`CC1=CC(C)(C)Nc2ccc3c(c21)C(c1ccccc1)Oc1cccc(OC(F)F)c1-3` (centres unmarked) [Example 345, 10-(Difluoromethoxy)-2,5-dihydro-5-phenyl-2,2,4-trimethyl-1H-[1]benzopyrano[3,4-f]quinoline] was tested, and the Ki [1, 3] was 8.7 nM and the Ki [2, 4] was 3000 nM.
With `C=CCC1Oc2cccc(OC)c2-c2ccc3c(c21)C(C)=CC1(CCOCC1)N3` (centres unmarked) [Example 359, 2,5-Dihydro-10-methoxy-2,2-[spiro(tetrahydro-4-pyranyl)]-4-methyl-5-ally-1H-[1]benzopyrano[3,4-f]quinoline] the Ki [1, 3] was 11.3 nM and the Ki [2, 4] was 2220 nM.
`COc1cccc2c1-c1ccc3c(c1C(c1ccc(N4CCOCC4)cc1)O2)C(C)=CC(C)(C)N3` (centres unmarked) [Example 42, 2,5-Dihydro-10-methoxy-2,2,4-trimethyl-5-[4-(1-morpholinyl)phenyl]1H-[1]benzopyrano[3,4-f]quinoline] was tested, and the Ki [1, 3] was 99 nM and the Ki [2, 4] was ≥ 10000 nM.
`COc1cccc2c1-c1ccc3c(c1C(=Cc1ccccc1F)O2)C(C)=CC(C)(C)N3` [Example 126] was tested, and the Ki [1, 3] was 2.9 nM and the Ki [2, 4] was 1410 nM.
With `COc1cccc2c1-c1ccc3c(c1C(c1ccccc1)O2)C(C)=[N+]([O-])C(C)(C)N3` (centres unmarked) [Example 357, 2,5-Dihydro-10-methoxy-2,2,4-trimethyl-3-oxide-5-phenyl-1H-[1]benzopyrano[3,4-f]quinazoline] the Ki [1, 3] was 59.8 nM and the Ki [2, 4] was ≥ 10000 nM.
With `COc1cccc2c1-c1ccc3c(c1C(c1cccc(OCC4CC4)c1)O2)C(C)=CC(C)(C)N3` (centres unmarked) [Example 88, 5-[3-(Cyclopropylmethoxy)phenyl]-2,5-dihydro-10-methoxy-2,2,4-trimethyl-1H-[1]benzopyrano[3,4-f]quinoline] the Ki [1, 3] was 6 nM and the Ki [2, 4] was 15300 nM.
Molecule `C=CCC1Oc2ccc(OC)c(OC)c2-c2ccc3c(c21)C(C)=CC(C)(C)N3` (centres unmarked) [Example 290, 9,10-Dimethoxy-5-(3-propenyl)-2,2,4-trimethyl-1H-2,5-dihydro-[1]benzopyrano[3,4-f]quinoline] has a Ki [1, 3] of 12.1 nM and a Ki [2, 4] of 611 nM.
In the case of `COc1c(OC(=O)N(C)C)ccc2c1-c1ccc3c(c1C(c1ccccc1OC(=O)N(C)C)O2)C(C)=CC(C)(C)N3` (centres unmarked) [Example 403, 2,5-Dihydro-9-N,N-dimethylcarbamoyloxy-10-methoxy-2,2,4-trimethyl-5-([2-N,N-dimethylcarbamoyloxy]phenyl)-1H-[1]benzopyrano[3,4-f]quinoline], the Ki ([1]; Ki (nM) GR) is reported as 131 nM and the Ki ([2]; Ki (nM) PR) is reported as ≥ 10000 nM.
With `CCOC(=O)c1cccc(C2Oc3cccc(OC)c3-c3ccc4c(c32)C(C)=CC(C)(C)N4)c1` (centres unmarked) [Example 107] the Ki [1, 3] was 215 nM and the Ki [2, 4] was > 10000 nM.
`COc1cccc2c1-c1ccc3c(c1C(c1ccc(C)cc1)O2)C(C)=CC(C)(C)N3` (centres unmarked) [Example 50, 2,5-Dihydro-10-methoxy-2,2,4-tnimethyl-5-(4-methylphenyl)-1H-[1]benzopyrano[3,4-f]quinoline] gave a Ki [1, 3] of 4.9 nM and a Ki [2, 4] of 9450 nM.
`COc1cccc2c1-c1ccc3c(c1C([C@@H]1C=C(CSC)CCC1)O2)C(C)=CC(C)(C)N3` (stereo in doubt) [Example 166] showed a Ki [1, 3] of 8.16 nM and a Ki [2, 4] of 5630 nM.
In the case of `COc1c(O)ccc2c1-c1ccc3c(c1C(C(C)C)O2)C(C)=CC(C)(C)N3` (centres unmarked) [Example 267, 2,5-Dihydro-9-hydroxy-10-methoxy-2,2,4-trimethyl-5-(2-propyl)-1H-[1]benzopyrano[3,4-f]quinoline], the Ki [1, 3] is reported as 0.79 nM and the Ki [2, 4] is reported as 938 nM.
Work on `CC1=CC(C)(C)Nc2ccc3c(c21)C(c1cc(C)cc(C)c1)Oc1ccc(O)c(Cl)c1-3` (centres unmarked) [Example 219, 10-Chloro-9-hydroxy-5-(3,5-dimethylphenyl)-2,2,4-trimethyl-1H-2,5-dihydro-[1]benzopyrano[3,4-f]quinoline] yielded a Ki [1, 3] of 2.4 nM and a Ki [2, 4] of 178 nM.
With `C=CCC1Oc2ccc(OC(=O)CCC(=O)N(CC)CC)c(OC)c2-c2ccc3c(c21)C(C)=CC(C)(C)N3` (centres unmarked) [Example 378, 2,5-Dihydro-9-(4-N,N-diethylamino-4-oxo-butanoyloxy)-10-methoxy-2,2,4-trimethyl-5-(2-propenyl)-1H-[1]benzopyrano[3,4-f]quinoline] the Ki [1, 3] was 1.1 nM and the Ki [2, 4] was 440 nM.
